Experimental data: a melting point compilation (Tetko et al.; mined from patent text by program, amines drawn as free bases though some values may be those of a salt)

melting point	SMILES
131 to 132 °C	CCOc1nn(-c2ccc(C(F)(F)F)cn2)cc1CCCOc1cccc(C(C)(C)C(=O)O)c1
107 to 108 °C	CCCCCC(=O)NS(=O)(=O)CCc1cc(OC(C)C)nn1Cc1ccc(Cl)cc1Cl
68 to 70 °C	Cc1ccc(C)n1-c1ccc(I)cc1F
120 to 122 °C	COc1ccc2c(c1)c(Cc1cc(=O)n(-c3cccc(C)c3)[nH]1)c(C)n2C(=O)c1ccc(Cl)cc1
56 to 57 °C	O=C1OC2CCC1OC2 (configuration not stated)
158 °C	COc1ccc2c(=O)c3cccc(OCc4ccccc4)c3oc2c1
82 to 83 °C	CCOC(=O)C(Br)=NNc1ccccc1
31 to 33 °C	O=C(CCCO)N1CCCCC1
60 to 67 °C	CCCC(=O)C(=O)[C@H](CC1CCCCC1)NC(=O)[C@H](Cc1cn(S(=O)(=O)c2ccc(C)cc2)cn1)NC(=O)OC(C)(OC)OC
231 to 233 °C	CCCn1c(=O)c(N=O)c(N)n(CC2CCCCC2)c1=O
67 to 69 °C	Cc1cc2c(cc1N1CCCC1)OC(=O)C2C (configuration not stated)
159 to 160 °C	O=C(Nc1cccc(-c2ccnc3c(C(=O)c4cccs4)cnn23)c1)c1c(F)cccc1F
88 °C	COc1ccc(C2CCCCC2)cc1-c1csc(NC(=O)N2CCN(C[C@@H]3CCCN(C4CC4)C3)CC2)n1
97 to 98 °C	CC(C)(C)OC(=O)NCCNC(=O)c1ncccc1Oc1ccccc1
143 to 144 °C	COc1ccc(C2Sc3c(Cl)cccc3N(CCN(C)C)C(=O)C2O)cc1 (configuration not stated)
88 to 89 °C	C=CCOc1noc2ccc(N3C(=O)C4=C(CCCC4)C3=O)cc12
65 °C	O=C1C=C(CC2CCCC(C(F)(F)F)C2)C(=O)c2ccccc21 (configuration not stated)
56 to 58 °C	O=C(CC1CCCCC1=O)c1ccc(Cl)cc1 (configuration not stated)
62 to 63 °C	COC(=O)c1cc(N(C)C)c2cc(Cc3ccc(F)cc3)cnc2c1O
73 to 75.5 °C	OCCN1CCN(CC2CNCCO2)CC1 (configuration not stated)
85 °C	CCOC(c1ccccc1)(c1ccccc1)C(C)CNC (configuration not stated)
241 to 244 °C	COc1ccc(Nc2cc(-c3ccc(S(C)(=O)=O)cc3)nc(N)n2)cc1Cl
221 °C	Oc1ccc(C2(c3cccc(O)c3)c3ccccc3-c3ccccc32)cc1
275 to 278 °C	C[C@@H](n1cnc2cc(-c3ccc(C(=N)NC#N)cc3)sc2c1=O)[C@](O)(Cn1cncn1)c1ccc(F)cc1F

melting point	SMILES
171 to 172 °C	CCCCc1nc(C(C)(C)O)c(C#N)[nH]1
176 to 178 °C	COc1c(N(C)C)cc(CC(C#N)=CNc2ccccc2)cc1N(C)C(C)=O
214 to 215 °C	CS(=O)(=O)Nc1ccc(OCC2CCN(c3ccncc3)CC2)cc1
245 to 247 °C	CN1CCN(c2cccc3c2C[C@H](NC(=O)c2ccc(-n4cccc4)cc2)CC3)CC1
154 to 156 °C	CCOC(=O)Cc1ccc(NC(=O)C(COc2ccc(Cl)cc2)NS(=O)(=O)c2ccc(Br)cc2)cc1 (racemic)
205 to 207 °C	Cc1cc(C(O)(C(F)(F)F)C(F)(F)F)cc(C)c1NCC(N)=O
209 to 211 °C	COc1ccc(C(=O)Nc2ccccc2)cc1NS(=O)(=O)c1ccc(F)cc1
150 to 152 °C	N#CC=C1CCN(c2ccc(N3C[C@H](CNC(=O)CC#N)OC3=O)cc2F)CC1
130 °C	CN(C)c1nc2[nH]c3c(c(=O)n2n1)SCCC3
106 to 107 °C	Cn1nc(COc2ccc(CCCC#N)cc2)nc1-c1ccccc1
165 to 166 °C	CCOC(=O)c1[nH]c(C)nc1C
148 to 150 °C	CC(=O)OC1CSC(Oc2cncc(I)c2)C(OC(C)=O)C1OC(C)=O (configuration not stated)
173 to 175 °C	CCCc1nc2cncc(C)c2[nH]1
74 to 78 °C	CC(C)(C)OC(=O)NCC#Cc1cccnc1
117 to 121 °C	CC(C)Cc1ccc(CCOC(=O)c2cc(O)c3c(c2)C(=O)c2cccc(O)c2C3=O)cc1
165 to 168 °C	O=C(O)COc1ccc2c(-c3ccccc3Cl)noc2c1Cl
80 to 82 °C	CCN(CC)S(=O)(=O)N1CCNC1=O
190 to 191 °C	Cn1ncc(C(=O)Nc2cc(Cl)ccc2Cl)c1N
142 to 145 °C	O=c1[nH]c(Cc2ccccc2)ccc1CCl
216 to 217 °C	C=C1CCCN(C(=O)c2ccc(NC(=O)c3ccccc3C)cc2)c2ccccc21
236 to 240 °C	CC(C)(C)NC(=O)Nc1nc2nc(NCCCN3CCOCC3)ncc2cc1-c1c(Cl)cccc1Cl
> 225 °C	COc1ccc(F)cc1C(C)(C)CC(O)(Cn1cc(C)c(=O)c2ccccc21)C(F)(F)F (configuration not stated)
98 to 100 °C	C#CCCN1CCC(O)(c2ccc(Cl)cc2)CC1
232 to 234 °C	O=C1c2c(c(=O)n3nc(-c4ccccc4)cc3n2Cc2ccccc2)CN1Cc1ccccc1

melting point	SMILES
105 to 107 °C	COC(=O)CC(=O)C=Cc1cc2ccccc2s1
207 to 209 °C	O=C(Nc1ccc(-n2nc(C(F)(F)F)cc2C(F)(F)F)cc1)Nc1ccc(Cl)c([N+](=O)[O-])c1
63 to 67 °C	CCCCc1nc2c(N)nc3c(c2n1CCCCN)CCCC3
197 to 198 °C	CC1(C)CN(C2CC3(C)C(CCC4C5CCC(C(=O)CSC#N)C5(C)CC(=O)C43)CC2O)CCO1 (configuration not stated)
183 to 184 °C	Cc1nc(N2CCN(Cc3ccc(F)cc3)C2=O)sc1C(=O)NCCN1CCCC1
93.5 to 95.6 °C	CC(C)CCN(CC(O)C(Cc1ccccc1)NC(=O)C(CC(N)=O)NC(=O)c1ccc2ccccc2n1)C(=O)NC(C)(C)C (configuration not stated)
262 to 265 °C	COc1ccccc1C(CO)c1c[nH]c2c(=O)[nH]c(N)nc12 (configuration not stated)
> 300 °C	CC1CCc2c(-c3ccc([N+](=O)[O-])cc3)ccc3c(=O)c(C(=O)O)cn1c23 (configuration not stated)
177 to 179 °C	N#CC1CCCc2c(C(=O)O)cccc21 (configuration not stated)
233 to 236 °C	COC(C)c1cc2c(=O)n(NS(C)(=O)=O)c(=O)[nH]c2cc1C(F)(F)F (configuration not stated)
203 °C	O=C(NCc1ccccc1)c1ccc(C=CC(=O)N2CCc3c([nH]c4ccccc34)C2c2ccc3c(c2)OCO3)cc1 (configuration not stated)
125 to 128 °C	COc1ccc(Br)c2c1C(=O)CC2
251 to 255 °C	CNc1nc(=O)c2ccccc2n1Cc1ccc(F)cc1
253 to 256 °C	Nc1ncccc1-c1nc2ccc(-c3cccnc3)nc2n1-c1ccc(CNC(=O)c2ccccc2)cc1
125 to 128 °C	CCOC(=O)C(=CNc1cccc(C(F)(F)F)n1)C(=O)OCC
156 to 158 °C	O=C1NC(=O)C(S(=O)(=O)c2ccc(Br)cc2)S1 (configuration not stated)
78 to 81 °C	COc1ccc(CNS(C)(=O)=O)cc1OC
128 to 129 °C	CN1CCN(c2cccc3ccc(Nc4ncccc4[N+](=O)[O-])cc23)CC1
191 to 194 °C	COC(=O)c1c(NCc2ccc(OC)c(Cl)c2)nc(N2CCC(O)CC2)nc1N1CCn2ccnc2C1
254 to 255 °C	Cc1ccnc(Nc2nc(-c3c[nH]nc3C(=O)c3ccccc3)cs2)n1
166 to 168 °C	O=C(NCCCl)NC1OC(CO)C(O)C1O (configuration not stated)
186 to 188 °C	COc1ccc(C2=NN(c3ccc(CC(=O)O)cc3)C(=O)C(C)(C)C2)cc1OC
146 to 148 °C	CC(c1ccccn1)C(O)(Cn1cncn1)c1ccc(F)cc1F (configuration not stated)

SMILES	melting point
CN(O)C(=O)Nc1ccc([N+](=O)[O-])c(C(F)(F)F)c1	129 to 130 °C
